Assay results taken from patent US9149043B2, “Compositions and method for preventing and treating fire blight” (priority 2009, dated 2015).
“And” between values parts separate entries of the source, which are not always exact repeats. Equal values may be shown once.

Tested on: Erwinia amylovara
Assay: Measuring the efficiency against fire blight on inoculated apple blossoms
Assay type: in vivo
Details: 0.06 % by weight in water (positive control); apple blossoms sprayed 1 h after inoculation, 6 days, vs water control
Method: For measuring the efficiency of the aqueous compositions, 24 blossoms of the apple varieties Braeburn, Jona Gold and Gala are placed in sugar solution and inoculated with a suspension of Erwinia amylovara at 10^6 bacterial cells. One hour after inoculation, the blossoms are sprayed, respectively, with the composition to be tested or with water, serving as a negative control, until completely wetted. These blossoms are incubated for 6 days at 20 to 23° C. and at a relative humidity of 100%.
The efficiency specifies the decrease of infested blossoms utilizing the composition to be tested in comparison to blossoms, which were treated with water only. All tests are conducted three to six times, and from the measured data the empirical mean of the efficiency, as well as the empirical standard deviation σ are calculated, whereby the standard deviation σ represents […] of the data from the arithmetic mean of the efficiency.

[H]/N=C(/N)N[C@H]1[C@H](O)[C@@H](O)[C@H](O[C@@H]2O[C@@H](C)[C@](O)(C=O)[C@H]2O[C@@H]2O[C@@H](CO)[C@H](O)[C@@H](O)[C@@H]2NC)[C@@H](N/C(N)=N\[H])[C@@H]1O [streptomycin]
mean of efficiency: 74% and 70% and 75%
